Data published in patent publication US8420777B2, “Compounds that inhibit Hsp90 protein-protein interactions with IAP proteins” (University of Massachusetts, priority 2004, dated 2013).

How the values were obtained:
[1] = system: HeLa cells; test: Stability of Hsp90 client proteins and caspase-3 proform, Western blot; type: cell-based, Human; details: increasing concentrations, 24 hours
Procedure: To determine whether intracellular loading of the Survivin cell permeable peptide reproduced the effect of mAb 8E2 that disrupts the Survivin-Hsp90 interaction in destabilizing Survivin levels in vivo (FIG. 8), HeLa cells were loaded with the indicated increasing concentrations of cell permeable control (SEQ ID NO:25) or Survivin (SEQ ID NO:19) cell permeable peptide, harvested after 24 hours, and analyzed for stability of Hsp90 client proteins, Survivin and Akt. Polyclonal antibody to Akt was obtained from Cell Signaling Technology (Cat. No. 9272).

[2] = molecular target: T1, N-terminus of Hsp90 (Homo sapiens, UniProt P07900, S63T); test: ELISA of immobilized peptide with Hsp90 fragments; type: binding; details: compared to P33 peptide
T1 construct: GST (N); made in house; host or cells: E. coli
Procedure: ELISA experiments were performed by immobilizing recombinant Survivin (r-Survivin) ([…]) or recombinant Hsp90 (r-Hsp90) (10 μg/ml) on plastic microtiter wells (Immulon™-2, Dynatech Laboratories, Chantilly, Va.) using bicarbonate buffer, pH 9.5 (100 μl/well) for 18 hours at 4° C. Bound protein was blocked with 3% gelatin for 1 hour at 37° C., rinsed with washing buffer (TBS pH 7.4, 0.1% Tween™, 0.1% BSA) and incubated for 1 hour at 37° C. with different concentrations of a test protein to determine if the test protein bound the immobilized protein.
Nucleotide sequences encoding full length Hsp90α (SEQ ID NO:21; amino acids 1-732) or three fragments: N-Hsp90 (amino acids 1-272 of SEQ ID NO:21), M-Hsp90, (amino acids 273-617 of SEQ ID NO:21), and C-Hsp90 (amino acids 629-732 of SEQ ID NO:21) were cloned by PCR in pGex-4T3 (Pharmacia Biotech.) and pFLAG-CMV 6c (Sigma) using the BamHI cloning sites. GST fusions of full length Hsp90, or individual Hsp90 fragments were expressed in E. coli and bound to glutathione beads (Sigma). Purified recombinant Survivin devoid of the GST frame was obtained as described in Example 2.
FIGS. 24A and 24B identify the location of P31 peptide's binding site as the N-terminus domain of Hsp90. […] After washing, binding of the individual Hsp90 fragments to the immobilized peptides was detected with an antibody to Hsp90. […]

[3] = system: breast carcinoma MCF-7 cells; test: Soft agar colony formation (anchorage-independent growth); type: cell-based; details: 75 or 150 μm in growth media, relative to Control scrambled peptide
Procedure: For soft agar colony formation, 2×10^4 adapted breast carcinoma MCF-7 cells were suspended in 1.5 ml of DMEM supplemented with 10% FBS and 0.35% bactoagar (Becton Dickinson, Sparks, Md.) in 36 mm tissue culture plates containing 1.5 ml of 0.75% agarose in growth medium at the bottom layer. The plates were incubated at 37° C. in a 5% CO2 incubator for 2-5 weeks. The colonies were stained with 0.005% crystal violet (Sigma) and counted using a dissecting microscope under high power field.
The two upper plates shown in FIG. 19 had no visible cell colonies.

[4] = molecular target: T2, recombinant Hsp90 (Homo sapiens, UniProt P07900, S63T); test: ELISA binding to recombinant Hsp90
T2 construct: GST-Hsp90 (amino acids 1-732); GST (N); made in house; host or cells: E. coli
Excerpt: (§1) FIG. 31 is a graph depicting Hsp90 binding by Survivin peptides, measured by ELISA. Data are the mean±S.D. of two independent experiments.

[5] = system: breast carcinoma MCF-7 cells; test: Multiparametric flow cytometry of caspase activity and membrane integrity; type: cell-based; details: MCF-7 (wild type p53), 24 hours
Procedure: For multiparametric analysis of caspase-dependent cell death and loss of plasma membrane integrity, HeLa, MCF-7, or genetically engineered HCT116 cells (obtained from ATCC) were loaded with increasing concentrations of cell permeable control scrambled peptide or the Survivin peptide, harvested after culturing for 24 hours at 37° C., and analyzed for cell viability (propidium iodide, red channel) and active caspase-3 activity (CaspaTag™ from Intergen, Purchase, N.Y., green channel) by flow cytometry.
Experiments were performed as in Example 13, except that breast carcinoma MCF-7 cells (wild type p53) were analyzed by multiparametric flow cytometry of induction of caspase activity and loss of cell membrane integrity after intracellular loading with cell permeable Control (SEQ ID NO:25) or Survivin (SEQ ID NO:19) cell permeable peptide.

[6] = molecular target: T3, survivin-Hsp90 (Homo sapiens, UniProt P07900, S63T); test: ELISA inhibition of recombinant survivin binding to Hsp90
T3 construct: GST-Hsp90 (amino acids 1-732); GST (N); made in house; host or cells: E. coli
Excerpt: as §1

[7] = system: telomerase; test: TRAP assay on Hsp90 immunoprecipitates; type: cell-based; details: PC3 cells treated before immunoprecipitation
Procedure: Survivin peptide treated PC3 cells were also tested for telomerase activity, which requires Hsp90 (Holt et al., Genes Dev., 13:817-26 (1999)). Cells were treated as in above, immunoprecipitated with an antibody to Hsp90, and telomerase activity was determined by TRAP assay (Kim and Wu, Nucleic Acids Res., 25:2595-7 (1997)) of the immunoprecipitates. Telomerase activity is indicated by a ladder of telomere products.

[8] = system: PC3 cells; test: Immunoblotting of Hsp90 client proteins; type: cell-based; details: 75 and 150 μM, 8 hours
Procedure: Survivin affects the stability and function of Hsp90 client proteins in tumor cells. PC3 cells were untreated or exposed to 75 and 150 μM concentrations of the survivin peptide (SEQ ID NO:19) (or control scrambled peptide; SEQ ID NO:25) for 8 hours and processed for immunoblotting against the Hsp90 client proteins survivin, AKT, and CDK-6. […] Conversely, the levels of Hsp90, Hsp70, and PCNA were not affected (FIG. 26A).

RQIKIWFQNRRMKWKKKHSSGCAFL (Synthetically generated peptide) [P31]
levels of Survivin and Akt [1]: low levels of Survivin and Akt
binding to the N-terminus of Hsp90 (OD405) [2]: bound specifically
anchorage-independent cell growth and survival [3]: completely inhibited
binding to recombinant Hsp90 in vitro [4]: comparably bound recombinant Hsp90
caspase-dependent apoptosis [5]: induces apoptosis
inhibition of binding of recombinant survivin to Hsp90 [6]: inhibited the binding of recombinant survivin to Hsp90 in a dose-dependent manner
telomerase activity [7]: abrogated telomerase activity
Hsp90 client proteins (survivin, Akt, CDK-4, CDK-6) [8]: caused disappearance of multiple Hsp90 client proteins
levels of Hsp90, Hsp70, and PCNA [8]: not affected
